Reference: US20260258048A1, “LACTAM-CONTAINING IMIDAZOPYRIDAZINE IL-17 INHIBITOR COMPOUNDS” (Janssen Pharmaceutica NV, priority 2023, published 2026)

What was measured:
[1] = target: IL-17A(FLAG-tagged): IL-17RA(His-tagged) (Homo sapiens, UniProt Q16552, K93Q); experiment: IL-17A(FLAG-tagged): IL-17RA(His-tagged) binding disruption Eu-HTRF assay; conditions: class of the average IC50 where tested more than once
How it was run: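 Compound (22-point, 2-fold series) was pre-incubated 1 h at rt with FLAG-IL-17A, added as a 2× solution (1 μM). A 2× mix of C-terminal 10×His IL-17RA, Eu-anti-FLAG donor and D2-anti-His acceptor in PBS/0.01% Triton X-100/200 mM KF was then added for 2 h at rt. The 665/615 nm ratio was fitted to one-site competition for IC50.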

[2] = test system: IL-17A-induced G-CSF production in human normal keratinocyte (NHK); experiment: NHK assay: IL-17A-induced G-CSF production in normal human keratinocytes; assay type: cell-based; conditions: 24 h, IL-17A 5 ng/mL, class of the average IC50 where tested more than once
How it was run: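 Adult keratinocytes at 3000-4000 cells/well; recombinant human IL-17A pre-incubated 1 h at rt with titrated compound, then added to cells (final 5 ng/mL IL-17A, 0.2% DMSO, 5% FBS) for 24 h at 37 °C. Supernatant G-CSF quantified by HTRF against a standard curve to give IC50; viability checked by CellTiter-Glo versus DMSO.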

Chain of UniProt Q16552 (Q16552 with tags, fused parts or gaps K93Q): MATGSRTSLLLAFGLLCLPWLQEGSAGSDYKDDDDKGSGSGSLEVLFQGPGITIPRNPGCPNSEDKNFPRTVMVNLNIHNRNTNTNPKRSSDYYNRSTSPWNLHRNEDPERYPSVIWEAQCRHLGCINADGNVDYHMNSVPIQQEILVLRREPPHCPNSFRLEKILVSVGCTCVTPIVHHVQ

IC50 [1]	SMILES	IC50 ([2]; Homo sapiens, Keratinocyte)	IC50 [2]
> 4 µM	CC(C)[C@@H]1C[C@H](Cc2cnn3cc([C@@H](NC(=O)c4nonc4C4CC4)C4CCC(F)(F)CC4)nc3c2)C(=O)N1 (relative stereo) [Example 96, 4-Cyclopropyl-N—[(S)-(4,4-difluorocyclohexyl)-[7-[[(3S*,5S*)-5-isopropyl-2-oxo-pyrrolidin-3-yl]methyl]imidazo[1,2-b]pyridazin-2-yl]methyl]-1,2,5-oxadiazole-3-carboxamide]	> 4 µM	
0.4 to 4 µM	O=C(N[C@H](c1cn2ncc(C[C@H]3C(=O)NC[C@@H]3C(F)(F)F)cc2n1)C1CCC(F)(F)CC1)c1nonc1C1CC1 (relative stereo) [Example 101, 4-Cyclopropyl-N—[(S)-(4,4-difluorocyclohexyl)-[7-[[(3R*,4R*)-2-oxo-4-(trifluoromethyl)pyrrolidin-3-yl]methyl]imidazo[1,2-b]pyridazin-2-yl]methyl]-1,2,5-oxadiazole-3-carboxamide]	0.4 to 4 µM	
< 0.4 µM	O=C(N[C@H](c1cn2ncc(CC3CC(F)(F)CNC3=O)cc2n1)C1CCC(F)(F)CC1)c1nonc1C1CC1 (single isomer, unassigned) [Example 1, 4-Cyclopropyl-N—((S)-(7-(((R*)-5,5-difluoro-2-oxopiperidin-3-yl)methyl)imidazo[1,2-b]pyridazin-2-yl)(4,4-difluorocyclohexyl)methyl)-1,2,5-oxadiazole-3-carboxamide]		< 0.4 µM
0.4 to 4 µM	O=C(N[C@H](c1cn2ncc(CC3CC(F)(F)CNC3=O)cc2n1)C1CCC(F)(F)CC1)c1nonc1C1CC1 (single isomer, unassigned) [Example 2, 4-Cyclopropyl-N—((S)-(7-(((S*)-5,5-difluoro-2-oxopiperidin-3-yl)methyl)imidazo[1,2-b]pyridazin-2-yl)(4,4-difluorocyclohexyl)methyl)-1,2,5-oxadiazole-3-carboxamide]		> 4 µM
< 0.4 µM	COc1nonc1C(=O)N[C@@H](CCC(C)(C)C(F)(F)F)c1cn2ncc(CC3C[C@@H](C(F)(F)F)NC3=O)cc2n1 (single isomer, unassigned) [Example 6, 4-Methoxy-N-[(1S)-5,5,5-trifluoro-4,4-dimethyl-1-[7-[[(3S*,5S)-2-oxo-5-(trifluoromethyl)pyrrolidin-3-yl]methyl]imidazo[1,2-b]pyridazin-2-yl]pentyl]-1,2,5-oxadiazole-3-carboxamide]		< 0.4 µM

Continued, compound first:

SMILES	IC50 [1]	IC50 ([2]; Homo sapiens, Keratinocyte)	IC50 [2]
CC(C)[C@@H]1C[C@@H](Cc2cnn3cc([C@@H](NC(=O)c4nonc4C4CC4)C4CCC(F)(F)CC4)nc3c2)C(=O)N1 (relative stereo) [Example 95, 4-Cyclopropyl-N—[(S)-(4,4-difluorocyclohexyl)-[7-[[(3R*,5S*)-5-isopropyl-2-oxo-pyrrolidin-3-yl]methyl]imidazo[1,2-b]pyridazin-2-yl]methyl]-1,2,5-oxadiazole-3-carboxamide]	0.4 to 4 µM	> 4 µM	
O=C(N[C@H](c1cn2ncc(C[C@@H]3C(=O)NC[C@H]3C(F)(F)F)cc2n1)C1CCC(F)(F)CC1)c1nonc1C1CC1 (relative stereo) [Example 100, 4-Cyclopropyl-N—[(S)-(4,4-difluorocyclohexyl)-[7-[[(3S*,4S*)-2-oxo-4-(trifluoromethyl)pyrrolidin-3-yl]methyl]imidazo[1,2-b]pyridazin-2-yl]methyl]-1,2,5-oxadiazole-3-carboxamide]	0.4 to 4 µM	> 4 µM	
COc1nonc1C(=O)N[C@@H](CCC(C)(C)C(F)(F)F)c1cn2ncc(CC3C[C@@H](C(F)(F)F)NC3=O)cc2n1 (single isomer, unassigned) [Example 5, 4-Methoxy-N-[(1S)-5,5,5-trifluoro-4,4-dimethyl-1-[7-[[(3R*,5S)-2-oxo-5-(trifluoromethyl)pyrrolidin-3-yl]methyl]imidazo[1,2-b]pyridazin-2-yl]pentyl]-1,2,5-oxadiazole-3-carboxamide]	> 4 µM		> 4 µM
